Test results reported in patent US11207277B2, “Methods of treating diseases associated with high-fat diet and vitamin a deficiency using retinoic acid receptor agonists” (Cornell University, priority 2013, dated 2021).
Entries after “also recorded” stand apart in the source; their conditions may differ.

Assays:
[1] = tested on: 4-hydroxynonenal (4-HNE); assay: 4-HNE staining of pancreas sections, HF-fed mice; type: in vivo; conditions: HF diet mice, AC261066 1.5 mg/100 ml drinking water 3 months; vs HF-vehicle
Protocol: AC261066 was dissolved in dimethyl sulfoxide (DMSO) at the concentration of 1.5 mg/ml, and diluted in the drinking water for mice to the final concentration of 1.5 mg/100 ml.
(§1) WT male C57/BL6 male mice were maintained on either a standard laboratory chow-fed diet (CFD) with 13% kcal fat, (diet #5053, Lab Diet, Inc, St. Louis, Mo.) or a high fat, western style diet (HFD) with 60% kcals from fat, (diet #58126, Lab Diet, Inc., St. Louis, Mo.) for 4 months. One month after the start of the high fat diet treatment, the high fat diet group was further split into 2 groups for 3 months: i) high fat diet and the drinking water containing 1% DMSO; ii) high fat diet and the drinking water containing 1.5 mg/100 ml AC261066, a specific RARβ agonist. Then mice were sacrificed by cervical dislocation. Blood and various tissue samples were harvested.
Paraffin-embedded sections (from two to four mice per group) were deparaffinized and rehydrated, and antigen retrieval was performed using an antigen unmasking solution (Vector Laboratories, H-3300). After quenching endogenous peroxidase with 3% H2O2, the tissue sections were blocked with the blocking reagent (from the M.O.M. kit from Vector Laboratories). Then, tissue sections were incubated with a 4-HNE antibody (1:400; mouse monoclonal antibody: Abcam, ab48506) overnight at 4° C. […]

[2] = tested on: α-SMA; assay: α-SMA immunofluorescence of kidney sections; type: in vivo; conditions: HF diet mice + AC261066
Text: as §1
Fresh mouse kidney samples were embedded in optimal cutting temperature (OCT) medium and immediately frozen to −70 centigrade. Cryosections were then fixed in 4% formaldehyde for 1 hr at room temp. Slides were then rinsed three times in deionized water (dH2O) for 30 s, followed by treatment with 0.5% Triton X-100 in PBS for 5 min. Sections were then washed three times with PBS for 5 min. Samples were with incubated 2% bovine serum albumin (BSA) for 30 min at room temperature to block for unspecific antibody binding. Following blocking, sections were washed three times in PBS and incubated with mouse monoclonal antibody against α-SMA (1:500) (Dako, Inc) for 24 h at 4° C. […]

CCCCOCCOc1nc(-c2ccc(C(=O)O)c(F)c2)sc1C [AC261066]
4-HNE staining intensity (oxidative stress) in pancreatic islets [1]: reduces oxidative stress in the pancreatic islets; also recorded: markedly lower 4-HNE staining intensity levels
α-SMA positive areas in kidney [2]: diminished expression of the fibrogenic protein alpha-SMA; also recorded: not observed
